For series [1], the system named is melanoma (A375, B16-F1) and prostate cancer cells (DU145, PC-3, LNCaP, PPC-1). In words: SRB assay, range over melanoma and prostate cancer cell lines. To be noted: for antiproliferative activity against melanoma and prostate cancer cell lines, in words: compared with 8f or parent compounds. It is filed as cell-based. The method, then: For melanoma assays, one human melanoma cell line (A375) and one mouse melanoma cell line (B16-F1) were used. […] Fibroblast cells were used as a control to determine the selectivity of these compounds against melanoma. Human dermal fibroblast cells were purchased from Cascade Biologics, Inc., Portland, Oreg., USA. […] Cells were exposed to a wide range of concentrations for 48 h in round-bottomed 96-well plates. […] After cells were air-dried overnight and stained with SRB solution, total proteins were measured at 560 nm with a plate reader.
In general terms: Sulforhodamine B stains cellular protein and so reports cell mass.

Series [2] concerns A375. In words: SRB antiproliferation assay, A375 melanoma. It is filed as cell-based, human. The text has this:
(§1) For melanoma assays, one human melanoma cell line (A375) and one mouse melanoma cell line (B16-F1) were used. […] Fibroblast cells were used as a control to determine the selectivity of these compounds against melanoma. Human dermal fibroblast cells were purchased from Cascade Biologics, Inc., Portland, Oreg., USA.

Series [3] has as its system B16-F1. The series can be described thus: SRB antiproliferation assay, B16-F1 melanoma. It is filed as cell-based, mouse.
Excerpt: as §1

In series [4] the test system is PPC-1. In words: SRB antiproliferation assay, PPC-1 prostate cancer. To be noted: read-out: IC50 PPC-1; SRB, 96 h; listed as 4b(4S).
In series [5] the test system is PC-3. In words: SRB antiproliferation assay, PC-3 prostate cancer. To be noted: read-out: IC50 PC-3, SRB.
In series [6] the test system is LNCaP. The series can be described thus: SRB antiproliferation assay, LNCaP prostate cancer. To be noted: read-out: IC50 LNCaP, SRB.
Series [7] concerns DU 145. In words: SRB antiproliferation assay, DU 145 prostate cancer. Conditions: read-out: IC50 DU 145; SRB.
Where [8] appears, read: Homo sapiens, A-375, 48 h, SRB, 48 h, read-out: IC50 A375 (converted).
[9] abbreviates: Mus musculus, B16-F1, 48 h, SRB, 48 h, read-out: IC50 B16-F1 (converted).
[10] abbreviates: range over the examined cell lines, read-out: IC50 over melanoma and prostate cancer cell lines.
Where [11] appears, read: Homo sapiens, A-375, read-out: IC50 A375.
The mark [12] stands for this setting: Mus musculus, B16-F1, read-out: IC50 B16-F1.
The mark [13] stands for this setting: Homo sapiens, A-375, SRB, read-out: IC50 A375 (converted).
The mark [14] stands for this setting: Mus musculus, B16-F1, SRB, read-out: IC50 B16-F1 (converted).

Where “and” joins values, the source holds several entries; their conditions need not be identical. Equal values may be shown once. Read-outs that look alike come from different tables or passages of the source.

For orientation: melting point means the temperature, or range, at which the solid turns liquid. As a reminder, the IC50 is the point on the concentration scale where inhibition reaches its midpoint. `COc1cc(NC(=O)[C@@H]2CSC(c3ccccc3)N2)cc(OC)c1OC` (mixture of isomers) [2a, (2RS,4R)-2-Phenyl-N-(3,4,5-trimethoxyphenyl)thiazolidine-4-carboxamide] gave a melting point of 158 to 159 °C. Moreover, the “antiproliferative activity against melanoma and prostate cancer cell lines, in words” value (“antiproliferative activity” below) in series [1] was “potency against both cancer cell lines was lost”. The IC50 in series [2] (setting [8]) is over 100 µM. The IC50 in series [3] (setting [9]) is over 100 µM.

As to `COc1cc(NC(=O)[C@@H]2CSC(c3cc(OC)c(OC)c(OC)c3)N2)cc(OC)c1OC` (mixture of isomers) [2b, (2RS,4R)—N,2-bis(3,4,5-trimethoxyphenyl)thiazolidine-4-carboxamide], the melting point fell in the range of 147 to 149 °C. Further, the “antiproliferative activity” value in series [1] is reported as “potency against both cancer cell lines was lost”. Besides, in series [2] (setting [8]), the IC50 was over 100 µM. The IC50 in series [3] (setting [9]) is over 100 µM.

For `COc1cc(NC(=O)[C@@H]2CSC(c3ccccc3)=N2)cc(OC)c1OC` [4a, (4R)-2-Phenyl-N-(3,4,5-trimethoxyphenyl)-4,5-dihydrothiazole-4-carboxamide], the melting point was 121 to 122 °C and 122 to 123 °C. For the same molecule, the IC50 in series [1] (setting [10]) was 3400 to 38300 nM. The IC50 in series [2] (setting [8]) was 22.8 ± 1.6 µM. Also, in series [3] (setting [9]), the IC50 was 38.3 ± 3.2 µM.

`COc1cc(NC(=O)[C@@H]2CSC(c3ccccc3)=N2)cc(OC)c1OC` [4b, (4R)-2-Phenyl-N-(3,4,5-trimethoxyphenyl)-4,5-dihydrothiazole-4-carboxamide]: the IC50 in series [4] is 3.4 ± 0.2 µM; in series [5] (96 h, listed as 4b(4S)), 13.2 ± 2.1 µM; in series [6] (96 h, listed as 4b(4S)), 16.8 ± 1.8 µM; in series [2] (SRB, 48 h, listed as 4b(4S), read-out: IC50 A375 (converted)), 13.6 ± 1.2 µM; in series [3] (SRB, 48 h, listed as 4b(4S), read-out: IC50 B16-F1 (converted)) it was 30.4 ± 2.8 µM.

The molecule `O=C(c1ccccc1)c1csc(-c2ccccc2)n1` [8a, Phenyl (2-phenylthiazol-4-yl)-methanone] had a melting point of 65 to 66 °C. Further, the IC50 in series [2] (setting [8]) was over 100 µM. The IC50 in series [3] (setting [9]) is over 100 µM.

In the case of `COc1ccc(C(=O)c2csc(-c3ccccc3)n2)cc1` [8b, (4-Methoxyphenyl)(2-phenylthiazol-4-yl)-methanone], the melting point lay within 105 to 106 °C. In series [1] (setting [10]), the IC50 is over 20000 nM. In series [2] (setting [8]), the IC50 was over 100 µM. Further, in series [3] (setting [9]), the IC50 is over 100 µM.

With `COc1cccc(C(=O)c2csc(-c3ccccc3)n2)c1` [8c, (3-Methoxyphenyl)(2-phenylthiazol-4-yl)-methanone], the melting point was 43 to 44 °C. The IC50 in series [1] (setting [10]) was over 20000 nM. Also, the IC50 in series [2] (setting [8]) is over 100 µM. In addition, in series [3] (setting [9]), the IC50 was over 100 µM.

Take `COc1ccccc1C(=O)c1csc(-c2ccccc2)n1` [8d, (2-Methoxyphenyl)(2-phenylthiazol-4-yl)-methanone]: the IC50 in series [1] (setting [10]) is over 20000 nM; in series [2] (setting [8]) it was 70.3 µM; in series [3] (setting [9]) it was 59.4 µM.

With `COc1ccc(C(=O)c2csc(-c3ccccc3)n2)cc1OC` [8e, (3,4-Dimethoxyphenyl)(2-phenylthiazol-4-yl)-methanone], the melting point was in the range of 89 to 91 °C. In addition, the IC50 in series [1] (setting [10]) was over 20000 nM. Moreover, in series [2] (setting [8]), the IC50 is over 100 µM. In series [3] (setting [9]), the half-inhibitory concentration (IC50) is over 100 µM.

Molecule `COc1cc(OC)cc(C(=O)c2csc(-c3ccccc3)n2)c1` [8g, (3,5-Dimethoxyphenyl)(2-phenylthiazol-4-yl)-methanone] yielded a melting point of 84 to 85 °C. For the same molecule, the IC50 in series [1] (average over six cell lines, read-out: average IC50) is 261 nM. Besides, the IC50 in series [1] (setting [10]) was in the range of 170 to 424 nM. Moreover, in series [2] (setting [8]), the IC50 is 0.17 µM. Besides, in series [3] (setting [9]), the IC50 was 0.35 µM.

`O=C(c1csc(-c2ccccc2)n1)c1ccccc1F` [8h, (2-Fluorophenyl)(2-phenylthiazol-4-yl)-methanone] displayed a melting point of 77 to 79 °C. Also, in series [2] (setting [8]), the IC50 was over 100 µM. Besides, the IC50 in series [3] (setting [9]) is over 100 µM.

Take `O=C(c1ccccn1)c1csc(-c2ccccc2)n1` [8i, (2-Phenylthiazol-4-yl)-(pyridin-2-yl)-methanone]: the melting point is 95 to 97 °C. In addition, the “antiproliferative activity” value in series [1] is reported as “total loss of the anti-cancer activity”.

`CCCCCCCCCCCCCCCCC(=O)c1csc(-c2ccccc2)n1` [8j, 1-(2-Phenylthiazol-4-yl)-heptadecan-1-one] yielded a melting point of 63 to 64 °C. Besides, in series [2] (setting [8]), the IC50 is 16 µM. Moreover, the IC50 in series [3] (setting [9]) is 18.6 µM.

Molecule `COc1cc(C(=O)c2csc(-c3ccc(C)cc3)n2)cc(OC)c1OC` [8k, (2-p-Tolylthiazol-4-yl)-(3,4,5-trimethoxyphenyl)-methanone] yielded a melting point of 116 to 119 °C. In series [5], the 50% inhibitory concentration (IC50) was 0.005 µM. The IC50 in series [1] (setting [10]) is 5 to 21 nM.

Regarding `COc1cc(C(=O)c2csc(-c3ccc(C(=O)O)cc3)n2)cc(OC)c1OC` [8r, 4-[4-(3,4,5-Trimethoxybenzoyl)-thiazol-2-yl]-benzoic acid], the melting point is > 220 °C (dec.). For the same molecule, the “antiproliferative activity” value in series [1] is on record as “total loss of the anti-cancer activity”.

`COC(=O)c1ccc(-c2nc(C(=O)c3cc(OC)c(OC)c(OC)c3)cs2)cc1` [8s, Methyl-4-[4-(3,4,5-trimethoxybenzoyl)-thiazol-2-yl]-benzoate] displayed a melting point of 172 to 174 °C. Also, the “antiproliferative activity” value in series [1] is “total loss of potency”.

As to `COc1cc(C(=O)c2csc(-c3ccc(N)cc3)n2)cc(OC)c1OC` [8w, [2-(4-Amino-phenyl)-thiazol-4-yl]-(3,4,5-trimethoxy-phenyl)-methanone], the IC50 in series [1] (setting [10]) is 11 to 29 nM.

As for `COc1cc(C(=O)c2csc(-c3cccs3)n2)cc(OC)c1OC` [8z, [2-(Thiophen-2-yl)-thiazol-4-yl]-(3,4,5-trimethoxyphenyl)-methanone], the IC50 was 22 ± 1 nM in series [7]; 9 to 38 nM in series [1] (setting [10]); 0.009 ± 0.001 µM in series [6]; 0.02 ± 0.007 µM in series [2] (setting [11]); 0.038 ± 0.015 µM in series [3] (setting [12]).

Consider `O=C(c1cc(O)c(O)c(O)c1)c1csc(-c2ccccc2)n1` [11f, (2-Phenyl-thiazol-4-yl)-(3,4,5-trihydroxy-phenyl)-methanone], for which, in series [1], the “antiproliferative activity” value is “complete loss of antiproliferative activity”.

Consider `O=C(c1ccc(F)cc1)c1csc(-c2ccccc2)n1` [12-12], for which the IC50 in series [2] (setting [13]) and in series [3] (setting [14]) was over 10 µM throughout.

For the molecule `O=C(c1ccc(F)cc1)c1csc(-c2ccc(F)cc2)n1` [14-14], the IC50 in series [2] (setting [13]) and in series [3] (setting [14]) was over 10 µM throughout.

On to `O=C(c1csc(-c2cc(F)c(F)c(F)c2)n1)c1c(F)c(F)c(F)c(F)c1F` [16-16], for which the IC50 in series [2] (setting [13]) is 15.2 µM; in series [3] (setting [14]), 6.9 µM.

For the molecule `O=C(c1csc(-c2ccccc2)n1)c1c(F)c(F)c(F)c(F)c1F` [17-17], the concentration for half-maximal inhibition (IC50) is 4.3 µM in series [2] (setting [13]) and 9.8 µM in series [3] (setting [14]).

Consider `O=C(c1ccc2c(c1)OCO2)N1CCC(c2ccccc2)CC1` [19-19], for which the IC50 in series [2] (setting [13]) and in series [3] (setting [14]) was over 20 µM throughout.

`O=C(c1ccc(F)cc1)N1CCC(c2ccccc2)CC1` [22-22]: the half-inhibitory concentration (IC50) in series [2] (setting [13]) and in series [3] (setting [14]) was over 20 µM in each case.

`COc1cc(C(=O)c2csc(-c3ccc(N)cc3)n2)cc(OC)c1OC` [26-26]: the IC50 worked out at 0.011 µM in series [2] (setting [11]) and 0.014 µM in series [3] (setting [12]).

On to `Cc1ccc(-c2nc(C(=O)c3ccc(F)cc3)cn2C(=O)c2ccc(F)cc2)cc1` [29-29], for which the IC50 in series [2] (setting [13]) and in series [3] (setting [14]) was over 10 µM throughout.

On to `COc1cc(-c2nc(C(=O)c3ccc(F)cc3)cn2C(=O)c2ccc(F)cc2)cc(OC)c1OC` [30-30], for which the IC50 in series [2] (setting [13]) and in series [3] (setting [14]) was over 10 µM each time.

As to `O=C(c1cc(O)c(O)c(O)c1)c1csc(-c2ccccc2)n1` [33-33], the IC50 was 9.8 µM in series [2] (setting [13]) and over 20 µM in series [3] (setting [14]).

In the case of `COc1cc(C(=O)c2csc(-c3ccccc3)n2)cc(OC)c1O` [34-34], the half-maximal inhibitory concentration (IC50) in series [2] (setting [13]) and in series [3] (setting [14]) was over 10 µM each time.

The molecule `COc1cc(NC(=O)c2csc(-c3ccccc3)n2)cc(OC)c1OC` [compound 5, 2-Phenyl-N-(3,4,5-trimethoxyphenyl)thiazole-4-carboxamide] returned a melting point of 157 to 158 °C. The “antiproliferative activity” value in series [1] is listed as “did not show any cytotoxicity”. The IC50 in series [2] (setting [8]) is over 100 µM. For the same molecule, the IC50 in series [3] (setting [9]) was over 100 µM.

For the origin of these results see patent US10865196B2, “Compounds for treatment of cancer” (University of Tennessee Research Foundation, priority 2008, dated 2020).
